In brackets after ≈: the same amount, converted by molar mass. Like-named read-outs stand apart in the source and are kept apart here.
Assays:
[1] = solubility in aqueous solution; assay type: physicochemical
Description: Formulations containing azithromycin at concentration ranging from 0.01 to 10% w/v, more particularly between 0.3 and 5% w/v, are the most preferred.

[2] = titration of azithromycin and clarithromycin, dispersed in water, with citric acid (FIG. 1, FIG. 2); assay type: physicochemical; details: for equivalent point: titration with citric acid
[3] = system: S. aureus ATCC 25923; assay: In vitro antibacterial activity, MBC; assay type: cell-based; details: Staphylococcus aureus
Method: (§1) In vitro bacteriostatic/bactericidal activity of azithromycin in different ophthalmic solutions has been evaluated as a function of ([H+]). Assessment of the activity it has been carried out by standardized method recommended by the National Committee for Clinical Laboratory Standards (NCCLS). […] Accordingly, three aliquots of Mueller-Hinton broth have been adjusted to the same pH of the azithromycin solutions (three) to be tested. […] Incubation for Staphylococcus spp. and Pseudomonas spp. needs aerobic conditions whereas Streptococcus spp. and Haernophilus spp. require partial anaerobic conditions during the period of incubation (5%, CO2).

[4] = system: S. aureus ATCC 29213; assay: In vitro antibacterial activity, MBC; assay type: cell-based; details: Staphylococcus aureus
Method: as §1

[5] = system: H. influenzae ATCC 49247; assay: In vitro antibacterial activity, MBC; assay type: cell-based; details: Haemophilus influenzae
Method: as §1

[6] = system: Ps. aeruginosa ATCC 27853; assay: In vitro antibacterial activity, MBC; assay type: cell-based; details: Pseudomonas aeruginosa
Method: as §1

[7] = system: Ps. aeruginosa ATCC 9027; assay: In vitro antibacterial activity, MBC; assay type: cell-based; details: Pseudomonas aeruginosa
Method: as §1

[8] = system: S. epidermidis ATCC 12228; assay: In vitro antibacterial activity, MBC; assay type: cell-based; details: Staphylococcus epidermidis
Method: as §1

[9] = system: H. influenzae ATCC 9006; assay: In vitro antibacterial activity, MBC; assay type: cell-based; details: Haemophilus influenzae
Method: as §1

[10] = system: S. aureus ATCC 6538P; assay: In vitro antibacterial activity, MBC; assay type: cell-based; details: Staphylococcus aureus, ATCC6538P
Method: as §1

[11] = system: St. Pyogenes ATCC 21547; assay: In vitro antibacterial activity, MBC; assay type: cell-based; details: Streptococcus pyogenes
Method: as §1

[12] = system: St. Pneumoniae ATCC 49619; assay: In vitro antibacterial activity, MBC; assay type: cell-based; details: Streptococcus pneumoniae
Method: as §1

[13] = system: gram-negative organisms; details: some gram-negative organisms, compared with other macrolides; cited from earlier work
[14] = Method: The final solution (100 ml), has been sterilized and distributed in appropriate vials.
[15] = Azithromycin distribution in aqueous humor after topical application; assay type: in vivo, white New Zealand rabbits; details: detection limit 3.8
Method: (§2) Twelve male white New Zealand rabbits (weighing 1.8-2.3 kg) have been randomly divided in three groups (consisting of four animals each).
(§3) I Group: three instillations (animals have been sacrificed 6 hours after the first dosing)
(§4) II Group: six instillations (animals have been sacrificed 12 hours after the first dosing)
(§5) III Group: six instillations (animals have been sacrificed 24 hours after the first dosing)
(§6) Aqueous humor has been drawn away with a 23-gauge needle attached to an insulin syringe of 1 ml. After enucleation the cornea has been excised at the limbus and removed from the eyeball. All specimens have been carefully weighed, then immediately frozen at -20° C. […] Each specimen has been ground and homogenized with 1 ml of PBS (2 min., 24,000 rpm). The suspension has been mixed with an equal volume of acetonitrile and stored at 0° C. After 1 hour, the samples have been centrifuged at 0° C. […] Aqueous humor has been directly mixed with acetonitrile before being centrifuged.

[16] = system: Staphylococcus aureus; assay: MIC90 for Staphylococcus aureus; assay type: cell-based
[17] = system: gram-positive organisms; details: compared with other macrolides; cited from earlier work
[18] = system: St. Pryogenes ATCC 21547; assay: In vitro antibacterial activity, MIC; assay type: cell-based
Description: (§7) In vitro bacteriostatic/bactericidal activity of azithromycin in different ophthalmic solutions has been evaluated as a function of ([H+]). Assessment of the activity it has been carried out by standardized method recommended by the National Committee for Clinical Laboratory Standards (NCCLS). In particular, three azithromycin solutions at different pH (6.5, 7.2, 7.8) in citrate-phosphate have been examined. Accordingly, three aliquots of Mueller-Hinton broth have been adjusted to the same pH of the azithromycin solutions (three) to be tested.
(§8) MIC values (μg/ml) have been measured by turbidity standard method after incubation of azithromycin aliquots, at the different pH, ranging from 18 to 24 h. Incubation for Staphylococcus spp. and Pseudomonas spp. needs aerobic conditions whereas Streptococcus spp. and Haernophilus spp. require partial anaerobic conditions during the period of incubation (5%, CO2).
(§9) Concentration of azithromycin able to inhibit the growth of the bacteria, after the period of incubation, is defined as the minimum inhibitory concentration (MIC).

[19] = system: S. aureus ATCC 25923; assay: In vitro antibacterial activity, MIC; assay type: cell-based; details: Staphylococcus aureus
Description: as §7, §8, §9

[20] = system: S. aureus ATCC 29213; assay: In vitro antibacterial activity, MIC; assay type: cell-based; details: Staphylococcus aureus
Description: as §7, §8, §9

[21] = system: H. influenzae ATCC 49247; assay: In vitro antibacterial activity, MIC; assay type: cell-based; details: Haemophilus influenzae
Description: as §7, §8, §9

[22] = system: Ps. aeruginosa ATCC 27853; assay: In vitro antibacterial activity, MIC; assay type: cell-based; details: Pseudomonas aeruginosa
Description: as §7, §8, §9

[23] = system: Ps. aeruginosa ATCC 9027; assay: In vitro antibacterial activity, MIC; assay type: cell-based; details: Pseudomonas aeruginosa
Description: as §7, §8, §9

[24] = system: S. epidermidis ATCC 12228; assay: In vitro antibacterial activity, MIC; assay type: cell-based; details: Staphylococcus epidermidis
Description: as §7, §8, §9

[25] = system: H. influenzae ATCC 9006; assay: In vitro antibacterial activity, MIC; assay type: cell-based; details: Haemophilus influenzae
Description: as §7, §8, §9

[26] = system: S. aureus ATCC 6538P; assay: In vitro antibacterial activity, MIC; assay type: cell-based; details: Staphylococcus aureus, ATCC6538P
Description: as §7, §8, §9

[27] = system: St. Pneumoniae ATCC 49619; assay: In vitro antibacterial activity, MIC; assay type: cell-based; details: Streptococcus pneumoniae
Description: as §7, §8, §9

[28] = in vivo; parameters: species or system white New Zealand rabbits; details: rabbit, topical or ocular, Ct (tissue concentration of azithromycin)
Method: as §2, §3, §4, §5, §6

[29] = cited from earlier work
[30] = background statement; cited from earlier work
[31] = in vivo; details: rabbit, topical or ocular, Ct (tissue concentration of azithromycin)
Method: as §2, §3, §4, §5, §6

## CC[C@H]1OC(=O)[C@H](C)[C@@H](O[C@H]2C[C@@](C)(OC)[C@@H](O)[C@H](C)O2)[C@H](C)[C@@H](O[C@@H]2O[C@H](C)C[C@H](N(C)C)[C@H]2O)[C@](C)(OC)C[C@@H](C)C(=O)[C@H](C)[C@@H](O)[C@]1(C)O [clarithromycin]
[1]; water, compared with azithromycin, read-out: maximum concentration in water
  solubility: < 20 mg/mL
[2]
  equivalent point: ~4.5 pH

## CC[C@H]1OC(=O)[C@H](C)[C@@H](O[C@H]2C[C@@](C)(OC)[C@@H](O)[C@H](C)O2)[C@H](C)[C@@H](O[C@@H]2O[C@H](C)C[C@H](N(C)C)[C@H]2O)[C@](C)(O)C[C@@H](C)CN(C)[C@H](C)[C@@H](O)[C@]1(C)O [azithromycin]
[3]; ATCC25923, pH 6.5
  MBC: > 4 µg/mL
[3]; ATCC25923, pH 7.2
  MBC: 3.25 µg/mL (≈ 4.34 µM)
[3]; ATCC25923, pH 7.5
  MBC: 2 µg/mL (≈ 2.67 µM)
[4]; ATCC29213, pH 6.5
  MBC: > 4 µg/mL
[4]; ATCC29213, pH 7.2
  MBC: > 4 µg/mL
[4]; ATCC29213, pH 7.5
  MBC: 2.25 µg/mL (≈ 3 µM)
[5]; ATCC49247, pH 6.5
  MBC: 7 µg/mL (≈ 9.35 µM)
[5]; ATCC49247, pH 7.2
  MBC: 3.5 µg/mL (≈ 4.67 µM)
[5]; ATCC49247, pH 7.5
  MBC: 3 µg/mL (≈ 4.01 µM)
[6]; ATCC27853, pH 7.2
  MBC: 100 µg/mL (≈ 134 µM)
[6]; ATCC27853, pH 7.5
  MBC: 50 µg/mL (≈ 66.8 µM)
[7]; ATCC9027, pH 7.2
  MBC: > 200 µg/mL
[7]; ATCC9027, pH 7.5
  MBC: 200 µg/mL (≈ 267 µM)
[8]; ATCC12228, pH 6.5
  MBC: > 4 µg/mL
[8]; ATCC12228, pH 7.2
  MBC: 3 µg/mL (≈ 4.01 µM)
[8]; ATCC12228, pH 7.5
  MBC: 2 µg/mL (≈ 2.67 µM)
[9]; ATCC9006, pH 6.5
  MBC: 6 µg/mL (≈ 8.01 µM)
[9]; ATCC9006, pH 7.2
  MBC: 3.5 µg/mL (≈ 4.67 µM)
[9]; ATCC9006, pH 7.5
  MBC: 3.5 µg/mL (≈ 4.67 µM)
[10]; pH 6.5
  MBC: > 4 µg/mL
[10]; pH 7.2
  MBC: 2.5 µg/mL (≈ 3.34 µM)
[10]; pH 7.5
  MBC: 1.75 µg/mL (≈ 2.34 µM)
[11]; ATCC21547, pH 6.5
  MBC: 3 µg/mL (≈ 4.01 µM)
[11]; ATCC21547, pH 7.2
  MBC: 0.6 µg/mL (≈ 0.801 µM)
[11]; ATCC21547, pH 7.5
  MBC: 0.35 µg/mL (≈ 0.467 µM)
[12]; ATCC49619, pH 6.5
  MBC: 3 µg/mL (≈ 4.01 µM)
[12]; ATCC49619, pH 7.2
  MBC: 0.45 µg/mL (≈ 0.601 µM)
[12]; ATCC49619, pH 7.5
  MBC: 0.3 µg/mL (≈ 0.401 µM)
[13]
  antibacterial activity: superior antibacterial activity
[14]
  effect of azithromycin concentration on stability: does not affect the stability of the final product
[15]
  azithromycin concentration in aqueous humor: < 3.8 µg/mL
[16]
  MIC90: 2.25 µg/mL (≈ 3 µM)
[17]
  antibacterial efficacy: same efficacy
[18]; pH 6.5
  MIC: 1.5 µg/mL (≈ 2 µM)
[18]; pH 7.2
  MIC: 0.37 µg/mL (≈ 0.494 µM)
[18]; pH 7.8
  MIC: 0.2 µg/mL (≈ 0.267 µM)
[19]; ATCC25923, pH 6.5
  MIC: 3 µg/mL (≈ 4.01 µM)
[19]; ATCC25923, pH 7.2
  MIC: 1.5 µg/mL (≈ 2 µM)
[19]; ATCC25923, pH 7.8
  MIC: 0.75 µg/mL (≈ 1 µM)
[20]; ATCC29213, pH 6.5
  MIC: 3.25 µg/mL (≈ 4.34 µM)
[20]; ATCC29213, pH 7.2
  MIC: 2.25 µg/mL (≈ 3 µM)
[20]; ATCC29213, pH 7.8
  MIC: 1 µg/mL (≈ 1.34 µM)
[21]; ATCC49247, pH 6.5
  MIC: 3 µg/mL (≈ 4.01 µM)
[21]; ATCC49247, pH 7.2
  MIC: 2 µg/mL (≈ 2.67 µM)
[21]; ATCC49247, pH 7.8
  MIC: 1 µg/mL (≈ 1.34 µM)
[22]; ATCC27853, pH 6.5
  MIC: > 200 µg/mL
[22]; ATCC27853, pH 7.2
  MIC: 50 µg/mL (≈ 66.8 µM)
[22]; ATCC27853, pH 7.8
  MIC: 12.5 µg/mL (≈ 16.7 µM)
[23]; ATCC9027, pH 6.5
  MIC: 200 µg/mL (≈ 267 µM)
[23]; ATCC9027, pH 7.2
  MIC: 25 µg/mL (≈ 33.4 µM)
[23]; ATCC9027, pH 7.8
  MIC: 6.25 µg/mL (≈ 8.34 µM)
[24]; ATCC12228, pH 6.5
  MIC: 2.5 µg/mL (≈ 3.34 µM)
[24]; ATCC12228, pH 7.2
  MIC: 1.5 µg/mL (≈ 2 µM)
[24]; ATCC12228, pH 7.8
  MIC: 0.75 µg/mL (≈ 1 µM)
[25]; ATCC9006, pH 6.5
  MIC: 3 µg/mL (≈ 4.01 µM)
[25]; ATCC9006, pH 7.2
  MIC: 2 µg/mL (≈ 2.67 µM)
[25]; ATCC9006, pH 7.8
  MIC: 0.5 µg/mL (≈ 0.668 µM)
[26]; pH 6.5
  MIC: 2.25 µg/mL (≈ 3 µM)
[26]; pH 7.2
  MIC: 1 µg/mL (≈ 1.34 µM)
[26]; pH 7.8
  MIC: 0.75 µg/mL (≈ 1 µM)
[27]; ATCC49619, pH 6.5
  MIC: 1.25 µg/mL (≈ 1.67 µM)
[27]; ATCC49619, pH 7.2
  MIC: 0.25 µg/mL (≈ 0.334 µM)
[27]; ATCC49619, pH 7.8
  MIC: 0.15 µg/mL (≈ 0.2 µM)
[28]
  concentration at 6 h: < 200000 ng/g
[28]; Average
  concentration at 6 h: 250000 ng/g
  concentration at 24 h: 420000 ng/g
[1]; aqueous citric acid/phosphate, process of the invention (citric acid/phosphate), read-out: solubility of azithromycin in aqueous solution
  solubility: > 100 mg/mL
[29]; after oral administration
  intracellular distribution into specific tissues: extensive intracellular distribution
[29]; in vivo
  Half-life: extremely elevated
[2]; citric acid, physiological range of pH
  solubilization by citric acid: elevated concentration
[2]
  equivalent point: ~7.0 pH
[30]
  water solubility: poor water solubility
[31]
  concentration at 6 h: < 100000 ng/g
  concentration at 24 h: 216000 ng/g
[31]; Average
  concentration at 12 h: 222000 ng/g
  concentration at 24 h: 169000 ng/g
